Tests used:
Flu-stimulated pDC = experiment: IFN-α production and membrane TRAIL by pDC cultured with Flu or Dengue; type: cell-based, human
Method: PBMC were seeded at 1.10^6/1 mL or purified pDC were seeded at 5.10^4/100 μl and then stimulated with the following viruses: inactivated AT-2 HIV-1MN (CXCR4 co-receptor specific) or AT-2 HIV-1ADA (CCR5 co-receptor specific) at 60 ng/mL p24^CA equivalent (provided by J. D. Lifson (SAIC-NCI, Frederick, Md.)), Infectious human Influenza A/PR/8/34 virus (Flu), titer 1:8192 at dilution 1:1000 or DENV-2 16681 at MOI 10. Infectious HIV-1MN [tissue culture 50% infective dose (TCID50)=[…]] and HIV-1ADA (TCID50=1,000) were used at the same concentration. Purified pDC were pre-treated with amino compounds for 1 hour, following overnight stimulation with virus. Supernatants were collected for cytokine detection. Microvesicles isolated from uninfected cell cultures matched to the culture to produce the virus were used as negative control (Mock).
The compounds were added in pDC culture at 10 μM (or other if specified) 1 hour before stimulation or not of the different viruses. For histamine, X-vivo culture media (Lonza) was used in order to avoid histaminases.
Cells were pre-incubated 1 hour with AMD (20 μM) (Sigma-Aldrich, MO, USA) prior to CB or histamine incubation. pDC were cultured in the presence of […] of the oligodinucleotide A151 (TTAGGG) ODN (Integrated DNA Technologies, Coralville, Iowa). […]

HIV-stimulated pDC [1] = experiment: Activation markers and cytokine mRNA in HIV-stimulated pDC (RT-qPCR, flow cytometry); type: cell-based, human
[2] = test system: 129S8 mice infected with Influenza A virus strain X31 (H3N2); conditions: mouse, in vivo
HIV-stimulated pDC [3] = experiment: TRAIL relocalization to the membrane of HIV-stimulated pDC (3D microscopy); type: cell-based, human
Method: (§1) Cells were then incubated with anti-CXCR4 antibody (Biolegend, San Diego, Calif.) in saturation buffer PBS-BSA 0.5% for membrane staining or in permeabilizing buffer containing 1% saponin with monoclonal antibody anti-TRAIL (Biolegend, San Diego, Calif., USA). […] Nucleus was stained using DAPI (Molecular Probes, Paisley, UK). Slides were mounted with Fluoromount-G (eBioscience, CA, USA) and scanned with a Nikon Eclipse 90i Upright microscope (Nikon Instruments Europe, Badhoevedorp, The Netherlands) using a 100× Plan Apo VC piezo objective (NA 1.4) and Chroma bloc filters (ET-DAPI, ET-GFP) and were subsequently deconvoluted with a Meinel algorithm and 8 iterations and analyzed using Metamorph® (MDS Analytical Technologies, Winnersh, UK). TRAIL/DAPI/Overlay/Confocal plane: Representative 2D focal plan. Overlay with bright: Bright. Reconvolution overlays: 2D projections of the maximum intensity pixels along the Z-axis.
7 pictures were taken from each slide for each Z section framing the nucleus. Quantification of the colocalization in the cytoplasm of purified pDC using Mander's Coefficient was obtained after analyze by JACoP pluging in ImageJ.

CXCR4 [4] = biological target: T1, CXCR4 (Homo sapiens, UniProt P61073); experiment: CXCR4 internalization and co-localization in pDC (microscopy); type: cell-based; conditions: cells incubated with CB, compared to untreated cells
Method: as §1, with “Reconvolution overlays: 2D projections of the maximum intensity pixels along the Z-axis.” left out
In other cases, cells were cultured overnight in media alone then were washed in ice-cold PBS-BSA 0.2% and stained with CXCR4 antibody (R&D Systems) for 1 hour at 4° C. […] Data are expressed as the mean percentage ±SEM mean channel fluorescence intensity (MFI) values for residual surface expression and intracellular staining. […]
7 pictures were taken from each slide for each Z section framing the nucleus. Quantification of the colocalization in the cytoplasm of purified pDC using Mander's Coefficient was obtained after analyze by JACoP pluging in ImageJ. […]

H4R = H4R (Homo sapiens, UniProt Q9H3N8); type: cell-based
[5] = test system: HIV or LPS stimulated monocytes; experiment: IFN-γ mRNA in monocytes stimulated with HIV or LPS (RT-qPCR); type: cell-based; conditions: RT-qPCR normalized to RPL13A
Method: Data shown are representative of two independent experiments.
Monocytes were pre-incubated with clobenpropit (CB), IT1t or chloroquine before being activated by HIV and LPS. IFN-γ levels were measured by RT-qPCR and normalized to RPL13A mRNA expression.

CXCR4 [6] = biological target: T1, CXCR4
[7] = Solubility of test compounds

T1 sequence (P61073 whole entry): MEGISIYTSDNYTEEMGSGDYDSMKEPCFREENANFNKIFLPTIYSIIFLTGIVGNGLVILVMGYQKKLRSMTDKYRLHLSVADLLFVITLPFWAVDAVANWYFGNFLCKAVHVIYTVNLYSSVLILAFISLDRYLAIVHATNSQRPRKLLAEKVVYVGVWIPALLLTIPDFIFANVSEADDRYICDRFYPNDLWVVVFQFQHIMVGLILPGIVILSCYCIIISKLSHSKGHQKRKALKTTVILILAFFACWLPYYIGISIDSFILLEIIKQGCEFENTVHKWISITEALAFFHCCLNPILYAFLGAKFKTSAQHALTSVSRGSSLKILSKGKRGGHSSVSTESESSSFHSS
H4R, sequence (Q9H3N8 whole entry): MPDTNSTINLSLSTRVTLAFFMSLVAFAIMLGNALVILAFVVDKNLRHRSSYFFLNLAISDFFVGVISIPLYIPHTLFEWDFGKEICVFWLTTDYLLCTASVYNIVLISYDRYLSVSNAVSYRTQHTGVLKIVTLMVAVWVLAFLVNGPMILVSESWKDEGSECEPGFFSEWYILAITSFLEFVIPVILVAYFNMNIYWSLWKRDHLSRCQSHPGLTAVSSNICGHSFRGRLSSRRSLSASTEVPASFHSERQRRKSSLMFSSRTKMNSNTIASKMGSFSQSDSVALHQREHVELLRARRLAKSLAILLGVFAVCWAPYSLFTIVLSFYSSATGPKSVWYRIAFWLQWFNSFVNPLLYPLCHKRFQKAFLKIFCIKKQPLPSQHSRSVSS

## NC(=NCc1ccc(Cl)cc1)SCCCc1cnc[nH]1 [Clobenpropit, clobenpropit]
Flu-stimulated pDC
  IFN-α production and membrane TRAIL expression by pDC cultured with Flu and Dengue: strongly inhibited
HIV-stimulated pDC [1]; HIV-1-stimulated pDC, RT-qPCR
  iNOS or IL-15 gene expression: neither CB nor FFN-511 affected
HIV-stimulated pDC [1]; RT-qPCR profiling, normalized to RPL13A
  transcription of virus-induced genes (TRAIL, IFNs, IL6, IL8, IL10, CXCL10, ISG56) induced in pDC by HIV-1: dramatically inhibited
[2]
  IFN-α, IFN-β and IFN-λ2/3 protein production in bronchioalveolar lavage (BAL) fluid: strong reduction
HIV-stimulated pDC [3]
  TRAIL localization to the cell membrane in HIV-stimulated pDC: significantly inhibited
CXCR4 [4]
  intracellular / extracellular CXCR4 in pDC: most of CXCR4 was detected intracellularly
H4R
  effect of H4R knock down on inhibitory activity on IFN-α, IFN-β and TRAIL productions by HIV-stimulated pDC: did not block
[5]
  IFN-γ expression by HIV or LPS stimulated monocytes: inhibit
Human primary PBMC
  Therapeutic index (Ratio TC50/EC50): 17.4
CXCR4 [6]; pDC activated by a CCR5-tropic (R5) HIV-1 and Flu
  effect of CXCR4 silencing on the inhibitory effect: blocked
CXCR4 [6]; pDC stimulated by CXCR4-tropic HIV-1
  effect of CXCR4 gene silencing on the inhibitory effect on type I IFN and TRAIL: suppressed
In vitro
  CC50: 417 ± 6 µM
[7]; PBS, aqueous buffer
  solubility: > 50 mg/mL
[7]; water
  solubility: > 50 mg/mL
